Values quoted from earlier work as cited in patent publication US20220218650A1, “COMPOSITION AND METHOD FOR TREATING PAIN” (Zelira Therapeutics Operations Pty Ltd, priority 2018, published 2022).

Conditions: treatment group (5 mg THC); control group 74 mg; difference not statistically significant (n=105)

In the case of `CCCCCc1cc(O)c2c(c1)OC(C)(C)[C@@H]1CCC(C)=C[C@@H]21` [dronabinol], the “Median dose of micro-opioid agonist piritramide in the two days post surgery” value is given as 54 mg.
